From patent publication US10100022B2, “Sphingosine kinase inhibitors” (University of Virginia Patent Foundation, priority 2014, dated 2018)

Key:
[1] = molecular target: T1, human sphingosine kinase type 1 (hSPHK1) (Homo sapiens, UniProt Q9NYA1); test: Sphingosine kinase assay, recombinant human SPHK1 ([32P]S1P product, scintillation counting); type: biochemical; conditions: read-out: activity hSPHK1 (range estimate of KI)
T1 construct: made in house; host or cells: Sf9 insect cells (baculovirus)
Method: (§1) Recombinant baculovirus encoding human sphingosine kinase type 1 (SPHK1) was used to infect Sf9 insect cells and after 2-5 days, cleared lysates were prepared and used without further purification. Human SPHK2, which was partially purified from baculovirus-infected Sf9 cell lysates, was purchased from a commercial source. Sphingosine kinase assays were performed using standard protocols. Product [^32P]S1P was recovered by binding to cation exchange paper and quantified by scintillation counting.

[2] = molecular target: T2, human sphingosine kinase type 2 (hSPHK2) (Homo sapiens, UniProt Q9NRA0); test: Sphingosine kinase assay, recombinant human SPHK2 ([32P]S1P product, scintillation counting); type: biochemical; conditions: read-out: activity hSPHK2 (range estimate of KI)
T2 construct: purchased; host or cells: Sf9 insect cells (baculovirus)
T2 sequence (Q9NRA0 1-654): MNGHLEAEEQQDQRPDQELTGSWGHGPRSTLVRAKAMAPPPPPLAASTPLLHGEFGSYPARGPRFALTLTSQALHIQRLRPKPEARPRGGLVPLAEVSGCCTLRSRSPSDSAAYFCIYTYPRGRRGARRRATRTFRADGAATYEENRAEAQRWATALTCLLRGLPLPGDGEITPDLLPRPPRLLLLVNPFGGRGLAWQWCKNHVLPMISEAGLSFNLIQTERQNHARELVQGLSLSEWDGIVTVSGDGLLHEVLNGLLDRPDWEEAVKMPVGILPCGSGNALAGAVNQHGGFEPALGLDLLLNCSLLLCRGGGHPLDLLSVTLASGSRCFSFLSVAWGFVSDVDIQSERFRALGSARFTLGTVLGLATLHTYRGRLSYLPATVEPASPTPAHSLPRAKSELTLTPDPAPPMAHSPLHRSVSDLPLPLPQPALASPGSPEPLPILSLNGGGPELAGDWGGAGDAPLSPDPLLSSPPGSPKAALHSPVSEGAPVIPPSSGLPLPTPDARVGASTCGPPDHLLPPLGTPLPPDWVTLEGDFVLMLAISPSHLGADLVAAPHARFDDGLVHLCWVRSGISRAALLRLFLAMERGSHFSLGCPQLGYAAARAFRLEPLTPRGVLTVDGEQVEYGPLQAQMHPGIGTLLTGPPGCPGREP
Method: as §1

T1 sequence (Q9NYA1 whole entry): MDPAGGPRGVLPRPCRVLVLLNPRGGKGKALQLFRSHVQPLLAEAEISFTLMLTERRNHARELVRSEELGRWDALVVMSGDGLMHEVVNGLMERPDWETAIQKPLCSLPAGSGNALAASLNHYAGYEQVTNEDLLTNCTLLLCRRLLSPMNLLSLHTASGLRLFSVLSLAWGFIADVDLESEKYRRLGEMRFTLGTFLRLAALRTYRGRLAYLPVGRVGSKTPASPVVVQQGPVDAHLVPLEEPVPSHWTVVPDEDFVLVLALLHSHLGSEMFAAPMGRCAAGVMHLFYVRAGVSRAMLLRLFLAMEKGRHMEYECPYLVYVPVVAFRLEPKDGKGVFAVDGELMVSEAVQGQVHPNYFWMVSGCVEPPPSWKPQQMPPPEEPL

Ki [1] [µM]	Ki [2] [µM]	Compound
1 to 10	< 1	N=C(N)N1CC[C@H](O)[C@H]1c1nc(-c2ccc(OCCc3ccc(C(F)(F)F)cc3)c(C(F)(F)F)c2)no1 [Compound 23A, amino((2S,3S)-3-hydroxy-2-(3-(3-(trifluoromethyl)-4-(4-(trifluoromethyl)phenethoxy)phenyl)-1,2,4-oxadiazol-5-yl)pyrrolidin-1-yl)methaniminium chloride]
1 to 10	< 1	N=C(N)N1CC[C@H](O)[C@H]1c1nc(-c2ccc(OCc3ccc(C(F)(F)F)cc3)c(C(F)(F)F)c2)no1 [Compound 24A, amino((2S,3S)-3-hydroxy-2-(3-(3-(trifluoromethyl)-4-((4-(trifluoromethyl)benzyl)oxy)phenyl)-1,2,4-oxadiazol-5-yl)pyrrolidin-1-yl)methaniminium chloride]
> 10	1 to 10	N=C(N)N1CC[C@H](O)[C@H]1c1nc(-c2ccc(OCCCc3ccc4c(c3)OCCO4)c(C(F)(F)F)c2)no1 [Compound 27A]
1 to 10	< 1	N=C(N)N1CC[C@H](O)[C@H]1c1nc(-c2ccc(OCCCc3ccc(Cl)c(Cl)c3)c(C(F)(F)F)c2)no1 [Compound 28A]
> 10	> 10	N=C(N)N1CCC[C@H]1c1nc(-c2ccc(OCCCc3ccc4c(c3)OCCO4)c(C(F)(F)F)c2)no1 [Compound 29A, (S)-amino(2-(3-(4-(3-(2,3-dihydrobenzo[b][1,4]dioxin-6-yl)propoxy)-3-(trifluoromethyl)phenyl)-1,2,4-oxadiazol-5-yl)pyrrolidin-1-yl)methaniminium chloride]

Second part, the compound before the results:

Compound	Ki [1] [µM]	Ki [2] [µM]
CCCCCCCCCCn1ccc2ccc(-c3noc([C@@H]4CCCN4C(=N)N)n3)cc21 [Compound 18A, (S)-amino(2-(3-(1-decyl-1H-indol-6-yl)-1,2,4-oxadiazol-5-yl)pyrrolidin-1-yl)methaniminium chloride]	> 10	1 to 10
CCCCCCCCOc1ccc(-c2noc([C@@H]3CC(F)(F)CN3C(=N)N)n2)cc1C(F)(F)F [Compound 19A, (S)-amino(4,4-difluoro-2-(3-(4-(octyloxy)-3-(trifluoromethyl)phenyl)-1,2,4-oxadiazol-5-yl)pyrrolidin-1-yl)methaniminium chloride]	> 10	> 10
CCCCCCCCOc1ccc(-c2noc([C@@H]3[C@@H](CO)CCN3C(=N)N)n2)cc1C(F)(F)F [Compound 20a, 2,2,2-trifluoroacetate]	< 1	< 1
CCCCCCCCOc1ccc(-c2noc([C@@H]3C=CCN3C(=N)N)n2)cc1C(F)(F)F [Compound 21A, (S)-amino(2-(3-(4-(octyloxy)-3-(trifluoromethyl)phenyl)-1,2,4-oxadiazol-5-yl)-2,5-dihydro-1H-pyrrol-1-yl)methaniminium chloride]	> 10	< 1
N=C(N)N1CC[C@H](O)[C@H]1c1nc(-c2ccc(OCCCc3ccc(C(F)(F)F)cc3)c(C(F)(F)F)c2)no1 [Compound 22A, amino((2S,3S)-3-hydroxy-2-(3-(3-(trifluoromethyl)-4-(3-(4-(trifluoromethyl)phenyl)propoxy)phenyl)-1,2,4-oxadiazol-5-yl)pyrrolidin-1-yl)methaniminium chloride]	1 to 10	< 1
N=C(N)N1CC[C@H](O)[C@H]1c1nc(-c2ccc(OCCCCc3ccc(C(F)(F)F)cc3)c(C(F)(F)F)c2)no1 [Compound 25A, amino((2S,3S)-3-hydroxy-2-(3-(3-(trifluoromethyl)-4-(4-(4-(trifluoromethyl)phenyl)butoxy)phenyl)-1,2,4-oxadiazol-5-yl)pyrrolidin-1-yl)methaniminium chloride]	< 1	< 1
N=C(N)N1CCC[C@H]1c1nc(-c2ccc(OCCCCc3ccc(C(F)(F)F)cc3)c(C(F)(F)F)c2)no1 [Compound 26A, (S)-amino(2-(3-(3-(trifluoromethyl)-4-(4-(4-(trifluoromethyl)phenyl)butoxy)phenyl)-1,2,4-oxadiazol-5-yl)pyrrolidin-1-yl)methaniminium chloride]	> 10	< 1
